Assay results as given in ChEMBL document CHEMBL4665715, “Thienochromene derivatives inhibit pSTAT1 and pSTAT5 signaling induced by cytokines” (Bioorg Med Chem Lett, 2020).
Activity calls are given as the source filed them. The calls are words filed in the database; no cut-off is given here.

Legend:
Format in all cases: tissue-based
Janus Kinase (JAK) [1] = target: T1, Janus Kinase (JAK) (Homo sapiens, UniProt P52333+P23458+O60674+P29597); test: Inhibition of JAK in human PBMC assessed as inhibition of GM-CSF-induced STAT5 phosphorylation at 150 uM preincubated for 30 mins followed by addition […] stimulation and measured after 30 mins by ELISA
Janus Kinase (JAK) [2] = target: T1, Janus Kinase (JAK); test: Inhibition of JAK in human PBMC assessed as inhibition of IL2-induced STAT5 phosphorylation at 150 uM preincubated for 30 mins followed by addition IL2 stimulation and measured after 30 mins by ELISA
Janus Kinase (JAK) [3] = target: T1, Janus Kinase (JAK); test: Inhibition of JAK in human PBMC assessed as inhibition of IFNalpha-induced STAT1 phosphorylation at 150 uM preincubated for 30 mins followed by addition […] stimulation and measured after 30 mins by ELISA
Janus Kinase (JAK) [4] = target: T1, Janus Kinase (JAK); test: Inhibition of JAK in human PBMC assessed as inhibition of IL2-induced STAT5 phosphorylation preincubated for 30 mins followed by addition IL2 stimulation and measured after 30 mins by ELISA
Janus Kinase (JAK) [5] = target: T1, Janus Kinase (JAK); test: Inhibition of JAK in human PBMC assessed as inhibition of IFNalpha-induced STAT1 phosphorylation preincubated for 30 mins followed by addition […] stimulation and measured after 30 mins by ELISA
Janus Kinase (JAK) [6] = target: T1, Janus Kinase (JAK); test: Inhibition of JAK in human PBMC assessed as inhibition of GM-CSF-induced STAT5 phosphorylation preincubated for 30 mins followed by addition […] stimulation and measured after 30 mins by ELISA

- inhibition (Janus Kinase (JAK) [1]): Active
- inhibition (Janus Kinase (JAK) [2]): Active
- inhibition (Janus Kinase (JAK) [3]): Active
- IC50 (Janus Kinase (JAK) [4]): 12.1 µM
- IC50 (Janus Kinase (JAK) [5]): 11.9 µM
- IC50 (Janus Kinase (JAK) [6]): 5 µM
Structure (SMILES): CCOC(=O)c1cc2c(=O)oc3cc(O)ccc3c2s1
